Experimental data from article PMC9127750, “Structure-based design of CDC42 effector interaction inhibitors for the treatment of cancer” (Cell reports, 2022).
“And” between values parts separate entries of the source, which are not always exact repeats. Equal entries are not always repeated.

Test system: WM3248 melanoma cells, 486 antibodies
Experiment: Reverse phase protein arrays (RPPA)
Type: cell-based, Human
Source text: Pellets were snap frozen in liquid nitrogen and shipped to MD Anderson Cancer Center core RPPA facility for RPPA analysis (Table S5). Three biological replicates for each sample were generated.
Nomenclatures on the RPPA heatmaps: name_of_antibody.species_of_antibody.status_of_antibody. V - antibody validated; C - validation of antibody in progress; Q - antibody nonspecific; E – under evaluation; antibodies raised in M - mouse, G - goat, R - rabbit, or T - rat.

[1] = Norm_5, replicates 1-3 and Average, relative to Norm_0

CN(C)c1cccc(Nc2cc(-c3ccccc3)nc(C3CCNCC3)n2)c1 [ARN22089, N1,N1-dimethyl-N3-(6-phenyl-2-(piperidin-4-yl)pyrimidin-4-yl)benzene-1,3-diamine]
ATRX.R.C RPPA signal, normalized [1]: 0.868 and 1.119 and 1.361 and 1.116
ATR_pS428.R.C RPPA signal, normalized [1]: 1.018 and 1.013 and 1.046 and 1.026
AceCS1.R.V RPPA signal, normalized [1]: 1.085 and 0.933 and 1.019
Akt1.R.V RPPA signal, normalized [1]: 0.915 and 0.974 and 0.812 and 0.900
Akt1_pS473.R.V RPPA signal, normalized [1]: 1.006 and 0.879 and 0.961
Akt2.R.V RPPA signal, normalized [1]: 0.917 (2×) and 0.925 and 0.908
Akt2_pS474.R.C RPPA signal, normalized [1]: 1.056 and 1.115
Akt.R.V RPPA signal, normalized [1]: 0.986 and 0.968 and 1.009
Akt_pS473.R.V RPPA signal, normalized [1]: 2.087 and 1.212 and 1.121 and 1.473
Akt_pT308.R.V RPPA signal, normalized [1]: 1.212 and 0.937 and 1.110
Ambra1_pS52.R.C RPPA signal, normalized [1]: 0.888 and 0.910 and 0.903 and 0.900
Annexin.I.M.V RPPA signal, normalized [1]: 0.981 and 1.012 and 1.278
Annexin.VII.M.V RPPA signal, normalized [1]: 1.019 and 0.975 and 0.977 and 0.990
Atg3.R.V RPPA signal, normalized [1]: 1.081 and 0.975 and 1.056
Atg4B.R.C RPPA signal, normalized [1]: 1.096 and 1.370 and 1.167
Atg5.R.C RPPA signal, normalized [1]: 1.011 and 1.078 and 1.020
Atg7.R.V RPPA signal, normalized [1]: 1.022 and 1.027
Aurora.A.R.C RPPA signal, normalized [1]: 0.652 and 0.973 and 0.927 and 0.851
Aurora.ABC_pT288_pT232_pT198.R.C RPPA signal, normalized [1]: 0.793 and 0.871 and 0.899 and 0.855
Aurora.B.R.V RPPA signal, normalized [1]: 0.896 and 1.084 and 0.923 and 0.968
Axl.R.V RPPA signal, normalized [1]: 0.968 and 1.169 and 1.152 and 1.097
B7.H3.R.C RPPA signal, normalized [1]: 1.106 and 0.952 and 0.992 and 1.017
B7.H4.R.C RPPA signal, normalized [1]: 1.026 and 0.982 and 1.007 and 1.005
B.Raf.R.C RPPA signal, normalized [1]: 1.062 and 1.061
B.Raf_pS445.R.V RPPA signal, normalized [1]: 1.018 and 1.017 and 1.057 and 1.031
BAP1.M.V RPPA signal, normalized [1]: 0.935 and 0.995 and 0.932 and 0.954
BCL2A1.R.V RPPA signal, normalized [1]: 1.271 and 0.801 and 1.003
BMK1.Erk5_pT218_Y220.R.V RPPA signal, normalized [1]: 0.965 and 0.943 and 0.924
BRCA1.M.C RPPA signal, normalized [1]: 0.876 and 0.959 and 0.998 and 0.944
BRD4.R.V RPPA signal, normalized [1]: 1.085 and 1.161 and 1.113
Bad_pS112.R.V RPPA signal, normalized [1]: 1.029 and 1.014 and 1.062 and 1.035
Bak.R.C RPPA signal, normalized [1]: 1.012 and 1.001 and 1.061 and 1.025
Bax.R.V RPPA signal, normalized [1]: 1.015 and 1.032 and 0.955 and 1.001
Bcl2.R.C RPPA signal, normalized [1]: 0.966 and 1.014 and 0.939 and 0.973
Bcl.xL.R.V RPPA signal, normalized [1]: 1.144 and 0.772 and 0.984
Beclin.R.C RPPA signal, normalized [1]: 0.940 and 1.010 and 0.868 and 0.939
BiP.GRP78.M.C RPPA signal, normalized [1]: 0.904 and 0.981 and 0.932 and 0.939
Bid.R.C RPPA signal, normalized [1]: 1.008 and 0.999 and 1.060 and 1.022
Bim.R.V RPPA signal, normalized [1]: 0.866 and 0.980 and 0.919
X4E.BP1.R.V RPPA signal, normalized [1]: 0.986 and 1.022 and 1.747 and 1.252
X4E.BP1_pS65.R.V RPPA signal, normalized [1]: 1.142 and 1.063 and 0.945 and 1.050
X4E.BP1_pT37_T46.R.V RPPA signal, normalized [1]: 1.104 and 1.054 (2×)
X14.3.3.zeta.R.V RPPA signal, normalized [1]: 0.999 and 1.014
X14.3.3βR.V RPPA signal, normalized [1]: 0.972 and 0.950 and 1.017 and 0.980
X14.3.3εM.C RPPA signal, normalized [1]: 0.936 and 0.999 and 0.976 and 0.971
X53BP1.R.V RPPA signal, normalized [1]: 0.978 and 0.924 and 0.982
b.Actin.R.C RPPA signal, normalized [1]: 0.918 and 0.939 and 0.975
b.Catenin.R.V RPPA signal, normalized [1]: 0.994 and 0.895 and 0.845
b.Catenin_pT41_S45.R.V RPPA signal, normalized [1]: 1.007 and 0.992 and 1.022
c.Abl.R.V RPPA signal, normalized [1]: 1.034 and 1.085 and 1.017
c.Abl_pY412.R.C RPPA signal, normalized [1]: 0.992 and 0.994 and 1.009
c.IAP2.R.C RPPA signal, normalized [1]: 1.048 and 1.023
C.Raf.R.C normalized signal (Norm_5 Average): 0.955
C.Raf_pS338.R.V normalized signal (Norm_5 Average): 1.097
CA9.R.C normalized signal (Norm_5 Average): 0.944
CD2.M.C normalized signal (Norm_5 Average): 0.959
CD4.R.V normalized signal (Norm_5 Average): 1.051
CD5.M.C normalized signal (Norm_5 Average): 0.995
CD20.R.C normalized signal (Norm_5 Average): 0.920
CD26.R.V normalized signal (Norm_5 Average): 0.984
CD29.M.V normalized signal (Norm_5 Average): 0.963
CD38.R.C normalized signal (Norm_5 Average): 1.035
CD44.R.C normalized signal (Norm_5 Average): 0.944
CD45.M.V normalized signal (Norm_5 Average): 0.967
CD49b.M.V normalized signal (Norm_5 Average): 0.979
CD68.M.C normalized signal (Norm_5 Average): 0.978
CD74.M.V normalized signal (Norm_5 Average): 0.927
CD134.R.V normalized signal (Norm_5 Average): 0.971
CD171.M.V normalized signal (Norm_5 Average): 0.783
CDK9.R.V normalized signal (Norm_5 Average): 0.955
CDKN2A.R.C normalized signal (Norm_5 Average): 0.941
CDT1.R.V normalized signal (Norm_5 Average): 0.908
CENP.A.R.V normalized signal (Norm_5 Average): 0.910
CHD1L.R.V normalized signal (Norm_5 Average): 1.009
COG3.R.V normalized signal (Norm_5 Average): 1.046
CRABP1.R.C normalized signal (Norm_5 Average): 0.948
CRABP2.R.V normalized signal (Norm_5 Average): 0.874
CSK.R.C normalized signal (Norm_5 Average): 0.850
Calnexin.R.V normalized signal (Norm_5 Average): 0.963
Caspase.3.cleaved.R.C normalized signal (Norm_5 Average): 1.016
Caspase.7.cleaved..R.C normalized signal (Norm_5 Average): 1.054
Caspase.8.M.Q normalized signal (Norm_5 Average): 0.985
